Test results published in patent US20100221763A1, “Specific Acceptors for Transferases to Saccharides and Method for Obtaining and Using Same” (Health Research, Inc, priority 2005, published 2010).
Several values for one entry are separate records, joined by “and”; a condition that tells them apart may be missing. Identical values can stand only once.

Key:
[1] = molecular target: T1, Rat recombinant α2,3(N)ST (Rattus norvegicus, UniProt Q02734); experiment: Sialyltransferase assay with cloned α2,3(N)ST; format: biochemical; conditions: Table I; acceptor 7.5 mM; 100% = 29520 CPM (Galβ1,4GlcNAcβ-O—Al)
T1 construct: purchased Calbiochem
T1 sequence (Q02734 29-374 limits assumed): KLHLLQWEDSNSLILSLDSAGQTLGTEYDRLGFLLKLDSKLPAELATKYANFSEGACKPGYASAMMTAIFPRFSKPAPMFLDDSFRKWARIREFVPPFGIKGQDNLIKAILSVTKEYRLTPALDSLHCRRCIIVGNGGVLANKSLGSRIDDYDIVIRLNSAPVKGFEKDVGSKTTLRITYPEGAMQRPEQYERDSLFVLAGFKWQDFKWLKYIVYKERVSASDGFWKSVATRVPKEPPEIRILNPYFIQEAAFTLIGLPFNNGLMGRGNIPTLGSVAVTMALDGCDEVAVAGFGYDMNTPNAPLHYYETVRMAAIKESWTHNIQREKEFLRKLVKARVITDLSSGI
Summary of the method: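 Each rat recombinant sialyltransferase incubated 2 h at 37° C in 0.1M NaCacodylate pH6.0 with acceptor (typically 7.5 mM) and CMP-[9-³H]NeuAc (typically 0.2 μci; 20 μci/nmol), in duplicate, acceptor-free blank subtracted. Radiolabelled product separated on Dowex-1-Formate or Sep-Pak C18 and counted by liquid scintillation.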

[2] = molecular target: T2, Rat recombinant α2,3(O)ST (Rattus norvegicus, UniProt Q11205); experiment: Sialyltransferase assay with cloned α2,3(O)ST; format: biochemical; conditions: for Sialyltransferase activity (%) Cloned α2,3(O)ST: Table I, acceptor 7.5 mM, 100% = 40560 CPM (3-O-MeGalβ1,4GlcNAcβ1,6(Galβ1,3)GalNAcα-O-Bn); for Km / Vmax: CMP-NeuAc 150 μM, Lineweaver-Burke plot
T2 construct: purchased Calbiochem
T2 sequence (Q11205 1-350): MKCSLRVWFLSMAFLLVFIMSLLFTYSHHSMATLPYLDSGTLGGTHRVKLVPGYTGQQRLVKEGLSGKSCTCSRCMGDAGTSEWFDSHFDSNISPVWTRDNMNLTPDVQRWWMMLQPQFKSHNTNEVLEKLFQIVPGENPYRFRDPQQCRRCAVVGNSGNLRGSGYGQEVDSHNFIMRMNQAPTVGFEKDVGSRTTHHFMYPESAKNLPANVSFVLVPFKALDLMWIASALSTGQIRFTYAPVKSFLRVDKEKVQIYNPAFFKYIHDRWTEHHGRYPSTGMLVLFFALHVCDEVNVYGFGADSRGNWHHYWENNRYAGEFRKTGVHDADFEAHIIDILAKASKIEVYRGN

[3] = molecular target: T3, Rat recombinant α2,6(N)ST (Rattus norvegicus, UniProt P13721); experiment: Sialyltransferase assay with cloned α2,6(N)ST; format: biochemical; conditions: Table I; acceptor 7.5 mM; 100% = 43500 CPM (Galβ1,4GlcNAcβ-O—Al)
T3 construct: purchased Calbiochem
T3 sequence (P13721 1-403): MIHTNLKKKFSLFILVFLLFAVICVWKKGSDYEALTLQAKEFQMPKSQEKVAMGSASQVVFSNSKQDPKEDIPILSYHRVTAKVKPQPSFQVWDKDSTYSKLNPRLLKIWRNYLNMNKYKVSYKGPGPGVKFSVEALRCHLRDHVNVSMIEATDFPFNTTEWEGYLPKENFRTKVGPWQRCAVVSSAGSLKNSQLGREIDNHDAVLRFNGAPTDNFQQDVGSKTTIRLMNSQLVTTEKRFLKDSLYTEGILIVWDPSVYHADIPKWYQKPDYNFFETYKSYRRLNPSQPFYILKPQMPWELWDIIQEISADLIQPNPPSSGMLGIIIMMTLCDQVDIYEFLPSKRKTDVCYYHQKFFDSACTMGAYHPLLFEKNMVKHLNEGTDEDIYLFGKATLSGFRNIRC

[4] = tested on: LNCaP α2,3(O)ST; experiment: Sialyltransferase assay with LNCaP cell extract; format: biochemical, human; conditions: Table I; acceptor 7.5 mM; 100% = 30930 CPM (3-O-MeGalβ1,4GlcNAcβ1,6(Galβ1,3)GalNAcα-O-Bn)
Summary of the method: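 LNCaP Triton X-100 extract (5 mg protein/ml; 0.1M Tris-maleate pH6.3) incubated with acceptor (typically 7.5 mM) and CMP-[9-3H]NeuAc (typically 0.2 μCi) in 0.1M Na cacodylate pH6.0, 2 h at 37 °C, in duplicate. Radioactive product separated on Dowex-1-formate, Sep-Pak C18 or Biogel P2 and counted by scintillation; blank without acceptor subtracted.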

Row | SMILES | Sialyltransferase activity (%) Cloned α2,3(N)ST [1] | Sialyltransferase activity (%) Cloned α2,3(O)ST [2] | Sialyltransferase activity (%) Cloned α2,6(N)ST [3] [%] | Km [2] [µM] | Vmax [2] | Sialyltransferase activity (%) LNCaP α2,3(O)ST [4] [%]
1 | CO[C@H]1O[C@H](CO)[C@H](O)[C@H](O[C@@H]2O[C@H](CO)[C@H](O)[C@H](O[C@@H]3O[C@H](CO)[C@H](O)[C@H](O)[C@H]3O)[C@H]2NC(C)=O)[C@H]1O [Galβ1,3GalNAcβ1,3Galα-O-Me] | 106.8% and 106.8^20% | 120.8% and 120.8^2% | 1.1 | 120 | 1293^13 pmol/h | 34.3
2 | C=CCO[C@H]1O[C@H](CO)[C@H](O)[C@H](O[C@@H]2O[C@H](CO)[C@H](O)[C@H](O)[C@H]2O)[C@H]1NC(C)=O [Galβ1,3GalNAcα-O—Al] | 24.1% | 112.0% | 0.2 | – | – | 34.4
3 | CO[C@H]1O[C@H](CO)[C@H](O)[C@H](O[C@@H]2O[C@H](CO)[C@H](O)[C@H](O[C@@H]3O[C@H](C)[C@H](O)[C@H](O)[C@H]3O)[C@H]2NC(C)=O)[C@H]1O [D-Fucβ1,3GalNAcβ1,3Galα-O-Me] | 3.1% | 115.6^3% | 2.5 | 560 | 1873 pmol/h | 9.6

Second part, led by results:

Row | Sialyltransferase activity (%) Cloned α2,3(N)ST [1] | Sialyltransferase activity (%) Cloned α2,3(O)ST [2] | Sialyltransferase activity (%) Cloned α2,6(N)ST [3] [%] | Km [2] [µM] | Vmax [2] | SMILES | Sialyltransferase activity (%) LNCaP α2,3(O)ST [4] [%]
4 | 60.0% | 0.2% | 90.1 | – | – | CO[C@H]1[C@H](O[C@H]2[C@H](O)[C@@H](NC(C)=O)C(O)O[C@@H]2CO)O[C@H](CO)[C@H](O)[C@@H]1O (stereo partly shown) [2-O-MeGalβ1,4GlcNAc] | –
5 | 115.3% | 2.9% | 3.7 | – | – | CO[C@H]1[C@H](O[C@H]2[C@H](O)[C@@H](CO)OC(O)[C@@H]2NC(C)=O)O[C@H](CO)[C@H](O)[C@@H]1O (stereo partly shown) [2-O-MeGalβ1,3GlcNAc] | –
